# Source: patent publication US20050026846A1, “Pharmaceutical compositions comprising alkanoyl L-carnitine in combination with a statine for treating pathologies brought about by an altered lipid metabolism” (SIGMA-TAU INDUSTRIE FARMACEUTICHE RIUNITE S.p.A., priority 1997, published 2005)
# Tests used:
# Format in all cases: in vivo, human
# [1] = test system: hypertriglyceridaemic patients; assay: Clinical study: cholesterolaemia (blood-chemistry tests); conditions: for Cholesterolaemia, statistical significance (p) vs baseline: propionyl L-carnitine 2 g/day, Student's t-test for paired data
# Protocol: (§1) Eight hypertriglyceridaemic patients (3 males and 5 females) were recruited for the study, with a mean age of 65 years (range: 52-70), presenting mean triglyceridaemia values of 213.0±21.18 mg % and mean cholesterolaemia values of 158.1±25.90 mg %, who were put on a dietary regimen consisting in 40 Kcal/kg, 1.2 g/kg proteins and 1.4 g/kg lipids daily.
# (§2) After baseline determinations of cholesterolaemia, triglyceridaemia, bilirubinaemia, alkaline phosphatase, protidaemia, GOT and GPT, all subjects took propionyl L-carnitine 2 g/day os for 60 days, which was discontinued on day 61 for a 30-day wash-out period. Simvastatin was then administered at a dose of 10 mg/day os in the evening for 30 days, followed by a further 30-day washout period and then by another 30-day period during which propionyl L-carnitine 1.5 g/day os and simvastatin 5 mg/day os were administered simultaneously.
# (§3) Blood-chemistry tests were performed before and after each course of drug treatment and at the end of each wash-out period. The data obtained were subjected to statistical analysis using Student's t-test for paired data (Table 1).
# [2] = test system: hypertriglyceridaemic patients; assay: Clinical study: triglyceridaemia (blood-chemistry tests); conditions: for Triglyceridaemia, statistical significance (p) vs baseline: propionyl L-carnitine 2 g/day, Student's t-test for paired data
# Protocol: as §1, §2, §3
# [3] = test system: hypertriglyceridaemic patients; assay: Clinical study: side effects; conditions: propionyl L-carnitine 2 g/day or 1.5 g/day os; simvastatin 10 or 5 mg/day os
# Protocol: as §1, §2
# All patients completed the study according to the procedures described. […] During the wash-out period the mean triglyceridaemia value recorded was 202.5±9.71 mg %, whereas the mean baseline value was 213.0±21.1 1 mg % (Table 2).
# [4] = 30 days os, simvastatin 10 mg/day, combination 1.5 g/day + 5 mg/day
SMILES,"Cholesterolaemia, statistical significance (p) vs baseline [1, 4]","mean cholesterolaemia value after treatment ([1]; after 30 days os, simvastatin 10 mg/day, or propionyl L-carnitine 1.5 g/day + simvastatin 5 mg/day, baseline 158.12±25.90 mg %, 8 patients)","mean post-treatment triglyceride value ([2]; after 30 days os, simvastatin 10 mg/day, or propionyl L-carnitine 1.5 g/day + simvastatin 5 mg/day, baseline 213.0±21.18 mg %, 8 patients)",side effects attributable to the drugs during the study period [3],"Cholesterolaemia, statistical significance (p) vs baseline ([1]; 60 days os)","Triglyceridaemia, statistical significance (p) vs baseline [2, 4]","Triglyceridaemia, statistical significance (p) vs baseline ([2]; 30 days os, simvastatin 10 mg/day, combination 1.5 g/day + 5 mg/day, listed as Propionyl L-carnitine)","Triglyceridaemia, statistical significance (p) vs baseline ([2]; 60 days os)","Triglyceridaemia, statistical significance (p) vs baseline ([2]; 60 days os, listed as Propionyl L-carnitine)","triglyceridaemia after treatment, significance (p): propionyl L-carnitine vs simvastatin ([2]; each administered alone)"
"CCC(C)(C)C(=O)O[C@H]1C[C@@H](C)C=C2C=C[C@H](C)[C@H](CC[C@@H]3C[C@@H](O)CC(=O)O3)[C@H]21 [simvastatin, reference compound]",p < 0.0585,156.75±22.82 mg %,193.8±22.63 mg %,–,–,–,–,–,–,–
CCC(=O)O[C@H](CC(=O)[O-])C[N+](C)(C)C [propionyl L-carnitine],p < 0.4795,–,–,no side effects,p < 0.0198,< 0.3671,p < 0.3671,< 0.0272,p < 0.0272,< 0.167
